For 6 compounds, IC50 results are on record in BindingDB's records for doi:10.1021/jm00167a032 (Sankyo, 1990).

The assay has as its target Arachidonate 5-lipoxygenase (Cavia porcellus). Briefly: Evaluated for inhibition of the formation and release of 5-lipoxygenase in guinea pig peritoneal PMNL.

`Cc1c(C)c2c(c(C)c1O)SC(c1ccccc1)O2` (stereo unspecified) displayed an IC50 of 71 nM.

With `CCCCCCCC1Oc2c(C)c(C)c(O)c(C)c2S1` (stereo unspecified), the IC50 is 220 nM. Against the preceding compound, the IC50 is about 3.1-fold higher.

In the case of `CCCC1Oc2c(C)c(C)c(O)c(C)c2S1` (stereo unspecified), the IC50 was found to be 25 nM.

On to `Cc1c(C)c2c(c(C)c1O)SCO2`, for which the IC50 came out at 290 nM.

In the case of `Cc1c(C)c2c(c(C)c1O)SC(CCC(N)=O)O2` (stereo unspecified), the IC50 worked out at 520 nM.

In turn, `CCCCC1Oc2c(C)c(C)c(O)c(C)c2S1` (stereo unspecified) returned an IC50 of 59 nM.
